Data: publication PMC5771238 (Neuropharmacology, 2017)
Read-outs that look alike come from different tables or passages of the source.

Key:
[1] = system: C57/Bl6J mice; assay: THC drug discrimination; format: in vivo, mouse; details: for effect on response rates / substitution for THC when administered alone / effect on THC's discriminative stimulus effects: second group; for effect on THC's discriminative stimulus effects: modulators 10 mg/kg, rimonabant 1 mg/kg with 5.6 mg/kg THC
[2] = target: T1, CB1 receptor (Mus musculus, UniProt P47746); assay: CP55,940-stimulated [35S]GTPγS binding in mouse cerebellar membranes; format: biochemical; details: for alpha ± SEM (binding cooperativity with CP55,940) / beta ± SEM (efficacy modifier): allosteric operational model, logKA=−6.6, Emax=100, TA=14, TB=0, n=1, LogKB from [3H]SR141716 binding
T1 sequence (P47746 whole entry): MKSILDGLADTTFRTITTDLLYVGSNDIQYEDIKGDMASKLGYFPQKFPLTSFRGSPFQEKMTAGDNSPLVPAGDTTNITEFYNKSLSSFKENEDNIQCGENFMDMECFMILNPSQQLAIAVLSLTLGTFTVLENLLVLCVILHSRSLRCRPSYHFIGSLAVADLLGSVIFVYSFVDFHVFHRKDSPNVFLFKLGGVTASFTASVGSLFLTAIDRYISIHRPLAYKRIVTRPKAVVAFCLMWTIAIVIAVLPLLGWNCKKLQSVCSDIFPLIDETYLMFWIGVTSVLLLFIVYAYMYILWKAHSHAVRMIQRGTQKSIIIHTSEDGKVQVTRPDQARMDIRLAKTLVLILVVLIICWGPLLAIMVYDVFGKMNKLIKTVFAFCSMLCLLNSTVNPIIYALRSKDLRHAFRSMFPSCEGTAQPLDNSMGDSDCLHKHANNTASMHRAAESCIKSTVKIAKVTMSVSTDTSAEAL

[3] = target: T1, CB1 receptor; assay: THC-stimulated [35S]GTPγS binding in mouse cerebellar membranes; format: biochemical; details: pregnenolone 1 – 10 μM
[4] = target: T1, CB1 receptor; assay: [3H]CP55,940 specific binding
[5] = system: ICR mice; assay: Cannabinoid tetrad tests; format: in vivo, mouse; details: for effect on THC's effects on activity, hypothermia, catalepsy / effect on THC's anti-nociceptive effect: 10 mg/kg modulator i.p. 10 min before 30 mg/kg THC; for effect on THC's anti-nociceptive effect: tail flick
[6] = target: T1, CB1 receptor
[7] = system: mice; assay: Feeding in mice; format: in vivo, mouse; details: 30 mg/kg; unpublished results
[8] = target: T1, CB1 receptor; assay: biochemical; details: pKB ± SEM
[9] = 3 parameter non-linear regression
[10] = 1 nM [3H]SR141716, allosteric ternary complex model, no GDP

| SMILES | effect on response rates [1] | substitution for THC when administered alone [1] | effect on THC's discriminative stimulus effects [1] | alpha ± SEM (binding cooperativity with CP55,940) [2] | beta ± SEM (efficacy modifier) [2] | effect on THC-stimulated [35S]GTPγS binding [3] | Top ± SEM (maximal increase in specific binding of [3H]CP55,940) [4, 9] | effect on THC's effects on activity, hypothermia, catalepsy [5] | effect on THC's anti-nociceptive effect [5] | logα ± SEM (cooperativity with [3H]SR141716) [6, 10] | other results |
| --- | --- | --- | --- | --- | --- | --- | --- | --- | --- | --- | --- |
| CCNC1(C(N)=O)CCN(c2ncnc3c2nc(-c2ccccc2Cl)n3-c2ccc(Cl)cc2)CC1 [otenabant] | significantly decreased response rates | without substituting themselves when administered alone | blocked THC’s discriminative stimulus effects | – | – | – | – | – | – | – | – |
| N#Cc1ccc(NC(=O)Nc2cccc(-c3cccc(N4CCCC4)n3)c2)cc1 [RTICBM-28] | Neither compound decreased response rates | – | lowered THC potency | 201.1 ± 11.95 | 0.001 ± 0.001 | produced insurmountable antagonism | 477.5 ± 15.14 | did not alter | but not RTICBM-15 or RTICBM-28, decreased THC’s anti-nociceptive effect | −1.13 ± 0.18 | pIC50 ± SEM ([2]; CP55,940 10 nM): 7.34 ± 0.05; pIC50 ± SEM ([2]; CP55,940 1 μM): 7.72 ± 0.03; pIC50 ± SEM ([2]; CP55,940 10 μM): 7.59 ± 0.03; pEC50 ± SEM for increase in specific binding of [3H]CP55,940 [4, 9]: 6.61 ± 0.07; pKB ± SEM [6, 10]: 6.65 ± 0.11; pKB ± SEM ([6]; in presence of 30 μM GDP): 5.86 ± 0.10 |
| Cc1c(C(=O)NN2CCCCC2)nn(-c2ccc(Cl)cc2Cl)c1-c1ccc(Cl)cc1 [SR141716, rimonabant] | significantly decreased response rates | without substituting themselves when administered alone | blocked THC’s discriminative stimulus effects | – | – | – | – | – | – | – | effect on locomotor activity in combination with THC ([5]; 3 mg/kg rimonabant and 30 mg/kg THC): increased activity; reversal of THC-induced antinociception, hypothermia, catalepsy ([5]; 3 mg/kg rimonabant i.p. before 30 mg/kg THC): rimonabant-reversible; effect on locomotor activity, anti-nociception, rectal temperature, catalepsy when followed by vehicle injection ([5]; 10 mg/kg modulator or 3 mg/kg rimonabant i.p., vs vehicle/vehicle): did not have any effect |
| CCCCCc1cc(O)c2c(c1)OC(C)(C)[C@@H]1CCC(C)=C[C@@H]21 [THC, delta-9-tetrahydrocannabinol] | – | – | – | – | – | – | – | – | – | – | effect on locomotor activity ([5]; THC 30 mg/kg i.p. with vehicle): did not affect locomotor activity; tetrad effects: antinociception, hypothermia, catalepsy ([5]; THC 30 mg/kg i.p. with vehicle): produced rimonabant-reversible antinociception (Figure 4B), hypothermia (Figure 4C), and catalepsy (Figure 4D) |
| O=C(Nc1ccc(Cl)cc1)Nc1cccc(-c2cccc(N3CCCC3)n2)c1 [PSNCBAM-1, 1-(4-chlorophenyl)-3-{3-[6-(pyrrolidin-1-yl)pyridin-2-yl]phenyl}urea] | Neither compound decreased response rates | – | did not alter THC’s discriminative stimulus effects | 55.01 ± 3.76 | 0.003 ± 0.001 | produced insurmountable antagonism | 419.1 ± 8.75 | did not alter | decreased THC’s anti-nociceptive effect | −0.73 ± 0.12 | IC50 ([2]; IC50, at 100 nM CP55,940): 49.2 nM; IC50 ([2]; pIC50 ± SEM, CP55,940 10 nM): 83.2 nM; IC50 ([2]; pIC50 ± SEM, CP55,940 1 μM): 39.8 nM; IC50 ([2]; pIC50 ± SEM, CP55,940 10 μM): 50.1 nM; EC50 [4]: 295 nM; effect on feeding in mice [7]: did not observe an effect; Kb [8, 10]: 195 nM; Kb ([8]; in presence of 30 μM GDP): 1820 nM |
| CC(=O)[C@H]1CC[C@H]2[C@@H]3CC=C4C[C@@H](O)CC[C@]4(C)[C@H]3CC[C@]12C [pregnenolone] | – | – | – | – | – | – | – | – | – | – | effect on THC's effects in the cannabinoid tetrad ([5]; stated in abstract only): did not block THC’s effects; substitution and response rate effects in combination with vehicle ([1]; first group, compound alone): neither compound produced substitution or response rate effects |
